This is an account of results in US5723458A, “Hypolipidaemic compounds” (Glaxo Wellcome Inc., priority 1993, dated 1998).

In this test the test system is rat distal ileal brush border membrane vesicles (active, sodium-dependent 3H taurocholate uptake). Description: In vitro inhibition of bile acid uptake. It counts as biochemical. The note with it: 30 seconds at 24° C., versus control active uptake. The protocol:
In vitro inhibition of bile acid uptake
Freshly prepared rat distal ileal brush border membrane vesicles (about […] vesicle protein) were incubated for 30 seconds at 24° C. in an incubation mixture comprising […] ^3 H taurocholate, 100 mM NaCl (or KCl) and 80 mM mannitol in 20 mM Hepes Tris pH 7.4. Each test compound was dissolved in ethanol (or water) and then diluted with incubation mixture to an ethanol concentration of not more than 1% v/v. The incubation was terminated by rapid dilution and filtration and the filter washed with an ice-cold isotonic sodium-free buffer.
The uptake of ^3 H taurocholate was measured by the radioactivity remaining on the filter and converted to pmoles/mg vesicle protein. The active, ie sodium-dependent, uptake was obtained by subtracting the passive uptake measured in 100 mM KCl from the total uptake measured in 100 mM NaCl. The active uptake for each test compound was compared with a control active uptake and the results expressed as % inhibition of bile acid uptake.
Data is given below for % inhibition of bile acid uptake at various concentrations of compounds of the invention.

As for `CC[C@@H](O)C[C@@]1(CC)CS(=O)(=O)c2ccccc2[C@H](c2ccccc2)N1` (racemic) [Example 1, (+-)-trans-3-ethyl-2,3,4,5-tetrahydro-3-((2R)-2hydroxybutyl)-5-phenyl-1,4-benzothiazepine 1,1-dioxide], the “% inhibition of bile acid uptake” value came out at 36% (3 μM test compound) and 69% (10 μM test compound).
Regarding `CC[C@@H](O)C[C@@]1(CC)CS(=O)(=O)c2cc(OC)ccc2[C@H](c2ccccc2)N1` (racemic) [Example 2], the “% inhibition of bile acid uptake” value by setting is: (0.3 μM test compound) 22%; (1 μM test compound) 44%; (3 μM test compound) 60%; (10 μM test compound) 83%.
For `CC[C@]1(C[C@H](O)CC(F)(F)F)CS(=O)(=O)c2ccccc2[C@H](c2ccccc2)N1` (racemic) [Example 11, (+-)-trans-1-(3-ethyl-2,3,4,5-tetrahydro-5-phenyl-1,4-benzothiazepin-3-yl)-4,4,4-trifluoro-(2S)-2-butanol-S,S-dioxide] the same measures were 13%, 31%, 63% and 85%.
For `CC[C@]1(C[C@H](O)CC(F)(F)F)CS(=O)(=O)c2ccc(OC)cc2[C@H](c2ccccc2)N1` (racemic) [Example 12, (+-)-trans-1-(3-ethyl-2,3,4,5-tetrahydro-7-methoxy-5-phenyl-1,4-benzothiazepin-3-yl)-4,4,4-trifluoro-(2S)-2-butanol-S,S-dioxide] the same measures were 47%, 72%, 86% and 95%.
For the molecule `CCC1NC(c2ccc(O)cc2)c2ccccc2S(=O)(=O)C1C[C@@H](O)CC` (mixture of isomers) [Example 24, (+-)-Trans-3-Ethyl-2,3,4,5-tetrahydro-2-(2(S)-2-hydroxybutyl)-5-(4-hydroxyphenyl)-1,4-benzothiazepine 1,1-dioxide], the “% inhibition of bile acid uptake” value (10 μM test compound) turned out to be 23%.
